Measured values as given in patent US11541237B2, “Methods for improving shoulder range of motion and functionality” (priority 2013, dated 2023).

Legend:
[1] = system: A (delta) and C sensory fibers; conditions: cited from earlier work; for sensory blocking properties: compared with the corresponding R (dextro)-enantiomers
[2] = cited from earlier work
radial nerve = assay: Injection in fanlike distribution of the radial nerve, patient with CRPS of right hand (Example 3); assay type: in vivo, human; conditions: single treatment, bupivacaine 0.25% (3 ml)
From the text: A patient with CRPS and severe pain, including pins and needles sensation in their right hand for over 20 years, presented with these symptoms and major discoloration in their right arm due to compartment syndrome many years ago and could barely open and close their fist.

[3] = system: Supratrochlear nerve / occipital nerves with SPG; assay: Injection of supratrochlear or occipital nerves combined with SPG block; assay type: in vivo, human
From the text: Another aspect of the invention is the combination of stimulation of SPG with branches of Trigeminal nerves, or occipital nerves. There is known C-2 and 3 connection with Trigeminal nerve and SPG and likely with C1.

[4] = system: facial pain / facial neuropathies; assay: Intranasal local anesthetic in patients with facial pain after facial trauma (Examples 4-6); assay type: in vivo, human
Procedure: A patient had severe facial pain following a large metal beam impact which left them with facial neuropathies and headache that adversely affected their ability to eat and speak was treated with intranasal bupivacaine 0.5% (4 ml). […] They improved with subsequent repeat treatments and was able to perform job and daily activities normally. […] A patient with severe facial pain resulting from being hit in the face with a pipe that caused four facial fractures, for seven years had numbness in certain areas of their face and severe pain in the area of their left eye, as well as generalized facial and head pain. They were treated with intranasal bupivacaine 0.5% (4 ml). […] A patient had sustained facial nerve injuries from a close range gunshot wound to the face. They were in excruciating pain and could not speak or eat without severe duress. […] They had been in agony for over 5 years previous to this treatment.

suprascapular nerve [5] = assay: Direct suprascapular injection and subsequent fanlike injection, patient with CRPS of left arm and hand with frozen shoulder syndrome (Example 7); assay type: in vivo, human; conditions: lidocaine 1% (4 ml) together with methylprednisolone acetate (10 mg), direct suprascapular then fanlike injection, a few treatment sessions
From the text: A patient had severe CRPS of the left arm and hand with frozen shoulder syndrome and severe edema, allodynia coldness and nail changes involving their left hand for over 18 months. Their condition is shown in the photographs of FIGS. 6 and 7. They failed all therapies to the time of presentation.

suprascapular nerve [6] = assay: Fanlike injection in the vicinity of the suprascapular nerve, patient with pain and decreased range of motion after rotator cuff repair (Example 1); assay type: in vivo, human; conditions: many months after torn rotator cuff repair, lidocaine 1% (3 ml)
Procedure: A patient with pain and decreased range of motion for many months following repair of a torn rotator cuff, was treated using a fanlike injection of lidocaine 1% (3 ml) merely in the vicinity of the suprascapular nerve, hitting small fibers in the area.
This block differs from classic suprascapular block in that the area around the nerve was targeted and treated, rather than the nerve itself. This procedure was easier to perform than trying to block the suprascapular nerve directly, which would have been much more difficult to target or specific, direct treatment. In terms of neurostimulation, or blocking with energy sources such as light, laser, infrasound or electricity, it means that transcutaneous methods can work well by targeting the area around a major nerve, or merely within its general area of innervation, and not necessarily the nerve itself.

[7] = intranasally administered; cited from earlier work
migraine = conditions: direct application to region of nasal epithelium overlying the SPG using a cotton swab, versus drip and spray methods; cited from earlier work
saphenous nerve = assay: Saphenous nerve injection, patient with severe leg and foot pain due to surgical trauma (Example 2); assay type: in vivo, human; conditions: ropivacaine 0.25% (5 ml)
Procedure: A patient with severe leg and foot pain for several years due to prior surgical trauma resulting from an initial bunionectomy and other follow-up surgeries was treated by a saphenous nerve injection of ropivacaine 0.25% (5 ml) after exquisite tenderness was noted on palpation of the saphenous nerve greater than 14 cm proximal to the level of their foot trauma. However, much of their symptomatology was in the distribution of other nerves. Indeed, they had motor dysfunction of the toes and their saphenous nerve is a purely sensory nerve. […] They could walk like they had not in many years.

[8] = Example 4, patient, metal beam impact, intranasal bupivacaine 0.5% (4 ml)

CCCN1CCCC[C@H]1C(=O)Nc1c(C)cccc1C (single isomer, unassigned) [S (levo)-enantiomer of ropivacaine]
sensory blocking properties [1]: better sensory blocking properties

CCCCN1CCCC[C@H]1C(=O)Nc1c(C)cccc1C [S (levo)-enantiomer of bupivacaine]
sensory blocking properties [1]: better sensory blocking properties | physiological toxicity ([2]; compared with the corresponding R (dextro)-enantiomers): lower physiological toxicity

CCCCN1CCCCC1C(=O)Nc1c(C)cccc1C (stereo not drawn) [bupivacaine]
symptoms and hand function (radial nerve; patient with CRPS over 20 years, fanlike distribution of radial nerve): felt dramatically better and could open and close their hand and make and maintain a fist | neurotrophic findings of decreased temperature, edema, allodynia, discoloration and severe restriction of range of motion (radial nerve; patient with CRPS): decreased dramatically | result of subsequent SPG block ([3]; injection of bupivacaine 0.5% to the Supratrochlear nerve): better result with SPG block subsequently | headache ([3]; injection of occipital nerves with 0.5%, with SPG block): headache was further decreased with SPG block | relief of pain [4, 8]: almost complete relief of pain | time to reported pain relief [4, 8]: ≤ 3 min | ability to open mouth, eat and speak ([4]; Example 4, patient, intranasal bupivacaine 0.5% (4 ml)): could open their mouth wide, eat normally and could speak for normal periods of time and at normal volume | time to reported pain relief ([4]; Example 5, patient, four facial fractures, pain for seven years, intranasal bupivacaine 0.5% (4 ml)): ≤ 1 min | relief of pain ([4]; Example 5, patient, intranasal bupivacaine 0.5% (4 ml)): complete relief of pain | pain management ([4]; Example 6, patient, gunshot wound to the face, intranasal bupivacaine 0.5% (3-4 ml) monthly, several years follow up): manages their pain well | adverse sequela ([4]; Example 6, intranasal bupivacaine 0.5% (3-4 ml) monthly, several years follow up): no adverse sequela

CCN(CC)CC(=O)Nc1c(C)cccc1C [lidocaine]
symptoms and findings of CRPS (frozen shoulder, edema, allodynia, coldness, nail changes) (suprascapular nerve [5]): completely reversed these symptoms and findings | pain and range of motion (suprascapular nerve [6]): remarkable improvement in pain and range of motion | duration of action [7]: shorter than about one hour

CCCN1CCCC[C@H]1C(=O)Nc1c(C)cccc1C [ropivacaine]
inhibition of migraine (migraine): most rapid and most effective inhibition of migraine | relief of pain (saphenous nerve): almost complete relief of pain | sensation and strength in the distribution of other peripheral nerves, including the peroneal nerves (saphenous nerve): normalized sensation and strength | time to reported pain relief (saphenous nerve): ≤ 10 min | block of nerve fibers such as A (delta) and C sensory fibers versus motor neurons ([1]; compared with bupivacaine): more preferentially than other neurons such as motor neurons | cardiovascular and central nervous system toxicity ([2]; compared with bupivacaine): lower cardiovascular and central nervous system toxicity than bupivacaine | systemic toxicity profile ([2]; compared with other similar relatively long acting potent local anesthetics): better systemic toxicity profile
